Laboratory results published in patent US20250332096A1, “BEVERAGE FORMULATION AND METHOD OF PROMOTING CELLULAR HYDRATION BY ENHANCING INTRACELLULAR PERMEATION” (Eastpond Laboratories Limited, priority 2024, published 2025).

Columns and labels:
[1] = Water bonding detected by NIR spectroscopy; assay type: physicochemical; conditions: for water-bond interactions, second-derivative NIR spectra: 0.1%-5% w/w
Method: Hydration bond energies in pure waters and solutions of the same waters containing cyclodextrin compounds were assayed using IR spectroscopy in the near and middle infrared ranges. To record linear signals throughout an entire wavelength range, attenuation from water absorbance was minimized with a short optical length cuvette. NIR range spectra were registered on a FOSS NIR Systems, Inc. 6500 spectrometer and Sample Transport Module (STM) using a 1 mm-sized cuvette. Transmission spectra were collected from 1100-2498 nm using a lead sulfide (PbS) detector and Vision 2.51 software (2001; FOSS NIRSystems, Inc.) A Perkin-Elmer Spectrum 400 FT-NIR/FT-IR spectrometer and UATR (Universal Attenuated Total Reflectance; ZnSe-diamond crystal, 1× flat top plate) sample handling unit were used to obtain spectra across 2500-15385 nm (reported as 4000-650 cm^1). Measurements were performed at 24 C using a triglycine-sulfate (TGS) detector and Spectrum ES 6.3.2 software (PerkinElmer, 2008). Three samples of water were used in the present study. A first water sample was purified by reverse osmosis, carbon filtration, ultraviolet light exposure, membrane filtration to 0.2 micron absolute, and ozonation. Second and third water samples were not purified. […] No. CYL-2322. • β-cyclodextrin (βCD also denoted as BCD). Lot. No. CYL-2518/2. • γ-cyclodextrin (γCD also denoted as GCD), Lot. No. […] No. […] No. CYL-2258. • carboxymethyl-β-cyclodextrin (CMBCD), Lot. No. CYL-2576. • quaternary-ammonium-β-cyclodextrin (QABCD).

[2] = system: C. elegans; assay: C. elegans longevity in hydration modified water (Example 5); assay type: in vivo; conditions: for Animals alive, % of initial: 0.1% w/w in nutritive media, USA I water; for effect on C. elegans survival: added to the culture media
Method: C. elegans nematodes were grown in petri-type dishes containing normal nutrient liquid media prepared alternatively with USA I water (described in Example 2) lacking any further additive component (control) or the same water supplemented with a parent α-, β-, or γ-cyclodextrin, and/or a bioactive agent, as an active component of cellular hydration. Fifty ±3 worms were transferred to each dish. Each condition was repeated in triplicate. Experiments were repeated for USA II and BP I waters described in Example 2.
• A. Addition of parent α-, β- and γ-cyclodextrins. • B. Addition of L-arginine and nicotinamide. • C. Addition of inclusion complexes of cyclodextrins with L-arginine and nicotinamide.

[3] = Water bonding detected by NIR spectroscopy; assay type: physicochemical; conditions: wavelength region 900-1200 nm; 0.1%-5% w/w
[4] = pH of test solutions; assay type: physicochemical; conditions: purified water
Method: (§1) 1:1 mol/mol stoichiometry complexes were prepared for the experiment. Nicotinic acid/alpha-CD complex was prepared by dissolving 11.22 g nicotinic acid and 98.63 g alpha-CD (89.66 g on dry basis) in 700 ml purified water. Nicotinamide/alpha-CD complex was prepared by dissolving 5.57 g nicotinamide and 49.3 g alpha-CD (44.4 g on dry basis) in 350 ml purified water and L-arginine/alpha-CD complex was prepared by dissolving 15.18 g L-arginine and 94.26 g alpha-CD (85.69 g on dry basis) in 700 ml purified water. Further, for all the three complexes, the liquid was frozen in dry ice bath and lyophilized. The dry lyophilizate was ground and sieved.
(§2) Clarity, pH, conductivity, density, viscosity, turbidity, surface tension and osmolality were determined in solutions prepared with purified water. […]

[5] = Conductivity of test solutions; assay type: physicochemical; conditions: purified water
Method: as §1, §2

[6] = Density measurements of test solutions; assay type: physicochemical
Method: The current study further manifests the density measurements in a cyclodextrin concentration dependent manner.
Water samples used were bottled water and tap water; wherein the tap water comprises the following impurities and properties: Free active chlorine (0.18 mg/1), Chloride (24 mg/1), Iron (6 μg/1), Manganese (2 μg/1), Nitrate (9 mg/1), Nitrite (<0.03 mg/1), Ammonium (<0.04 mg/1), Hardness of water (122 mg/l CaO), Conductivity (442 μS/cm) and pH 8. Purified water was produced by removal of dissolved ions by Merck/Millipore Synergy® Water Purification System at Cyclolab. The water quality produced Type 1 water (18.2 MΩ·cm at 25° C. ultrapure water) from pretreated water.
as §1, §2
However, it may not be established exactly which ionic species (Mg2+, Ca2+, Na+) causes this perturbation.

[7] = Viscosity of test solutions; assay type: physicochemical; conditions: purified water, 2.00%
Method: as §1
Clarity, pH, conductivity, density, viscosity, turbidity, surface tension and osmolality were determined in solutions prepared with purified water.

[8] = Turbidity of test solutions; assay type: physicochemical; conditions: purified water (reference)
Method: as §1, §2

[9] = Visual inspection (clarity) of test solutions; assay type: physicochemical; conditions: purified water
Method: as §1, §2

[10] = Surface tension of test solutions; assay type: physicochemical; conditions: purified water
Method: as §1, §2

[11] = system: Wheat seeds (Triticum aestivum); assay: Wheat seed germination; assay type: in vivo; conditions: 0.5% w/w in USA I water
Method: Wheat seeds (Triticum aestivum) were germinated using USA I, USA II, and BP I waters described for Example 2. Germination rate using un-supplemented (control) water was compared to that with the same water variously supplemented with a cyclodextrin component, and/or a bioactive agent, as an active component of cellular hydration. For each condition, ten seeds were placed in continuous water contact in a Petri-type dish kept at 25 C in 12 hr light/dark cycles. Photometric images were recorded on days 1 to 6 after seeding. The percentage of seeds germinated was calculated and compared as a function of time and of the applied additive concentrations.
Water samples for seed germination were used alone with no additive, or containing cyclodextrins, or containing clathrate inclusion complexes of cyclodextrin with L-arginine or with nicotinamide (both obtained from Sigma Chemical Co.; St. Louis, MO), or with L-carnitine (from Lonza AG; Switzerland). […] Additive solutions were prepared fresh on the day of germination start.
Parent cyclodextrins α-cyclodextrin (ACD), β-cyclodextrin (BCD), and γ-cyclodextrin (GCD), were obtained from Wacker Chemie (Munich, Germany). The following derivatized cyclodextrins were obtained from Cyclolab Ltd. (Budapest, Hungary): hydroxypropylated-beta-cyclodextrin (DS-3)(HPBCD), carboxymethylated-β-cyclodextrin (DS-3.5)(CMBCD), 2-hydroxy-3-N,N,N-trimethylamino)propyl-β-cyclodextrin chloride (DS-3.6)(QABCD).
Germination kinetics in control and additive-modified water under identical conditions were quantified as the percentage of the seeds having a sprout. Each determination consisted of 100 seeds for each parameter. Results are reported in Table 5, below, and in FIGS. 11-13. • A) Cyclodextrin/L-Arg Inclusion Complex Increases Seed Germination.

CC(O)COC[C@H]1O[C@@H]2O[C@H]3[C@H](O)[C@@H](O)[C@@H](O[C@H]4[C@H](O)[C@@H](O)[C@@H](O[C@H]5[C@H](O)[C@@H](O)[C@@H](O[C@H]6[C@H](O)[C@@H](O)[C@@H](O[C@H]7[C@H](O)[C@@H](O)[C@@H](O[C@H]8[C@H](O)[C@@H](O)[C@@H](O[C@H]1[C@H](O)[C@H]2O)O[C@@H]8COCC(C)O)O[C@@H]7COCC(C)O)O[C@@H]6COCC(C)O)O[C@@H]5COCC(C)O)O[C@@H]4COCC(C)O)O[C@@H]3COCC(C)O (stereo partly drawn) [HP-β-Cyclodextrin, 2-hydroxypropyl-β-cyclodextrin]
water-bond interactions, second-derivative NIR spectra ([1]; 1200-1500 nm): significantly modified
water-bond interactions, second-derivative NIR spectra ([1]; 1620-1710 nm): significantly modified
water-bond interactions, second-derivative NIR spectra ([1]; 2170-2370 nm): significantly modified
Animals alive, % of initial ([2]; life span 10 days): 96 % of initial
Animals alive, % of initial ([2]; life span 15 days): 17 % of initial
Animals alive, % of initial ([2]; life span 18 days): 0 % of initial
water-bond interactions, second-derivative NIR spectra [3]: further significantly modified

carboxymethyl-β-cyclodextrin
water-bond interactions, second-derivative NIR spectra ([1]; 1200-1500 nm): further significantly modified
water-bond interactions, second-derivative NIR spectra ([1]; 1620-1710 nm): significantly modified
water-bond interactions, second-derivative NIR spectra ([1]; 2170-2370 nm): significantly modified
Animals alive, % of initial ([2]; life span 10 days): 94 % of initial
Animals alive, % of initial ([2]; life span 15 days): 11 % of initial
Animals alive, % of initial ([2]; life span 18 days): 0 % of initial
water-bond interactions, second-derivative NIR spectra [3]: further significantly modified

OC[C@H]1O[C@@H]2O[C@H]3[C@H](O)[C@@H](O)[C@@H](O[C@H]4[C@H](O)[C@@H](O)[C@@H](O[C@H]5[C@H](O)[C@@H](O)[C@@H](O[C@H]6[C@H](O)[C@@H](O)[C@@H](O[C@H]7[C@H](O)[C@@H](O)[C@@H](O[C@H]8[C@H](O)[C@@H](O)[C@@H](O[C@H]9[C@H](O)[C@@H](O)[C@@H](O[C@H]1[C@H](O)[C@H]2O)O[C@@H]9CO)O[C@@H]8CO)O[C@@H]7CO)O[C@@H]6CO)O[C@@H]5CO)O[C@@H]4CO)O[C@@H]3CO [Gamma Cyclodextrin, γ-cyclodextrin]
pH ([4]; 0.05%): 6.82
pH ([4]; 0.10%): 6.79
pH ([4]; 1.00%): 6.87
pH ([4]; 2.00%): 6.77
Conductivity ([5]; 0.05%): 25.0 μS · cm^−1
Conductivity ([5]; 0.10%): 25.0 μS · cm^−1
Conductivity ([5]; 1.00%): 27.0 μS · cm^−1
Conductivity ([5]; 2.00%): 27.0 μS · cm^−1
Density (at 22 C.) ([6]; Tap water, 0.05%): 0.9997 ± 0.0007 g/cm³
Density (at 22 C.) ([6]; Tap water, 0.10%): 1.0002 ± 0.0004 g/cm³
Density (at 22 C.) ([6]; Tap water, 1.00%): 1.0035 ± 0.0007 g/cm³
Density (at 22 C.) ([6]; Tap water, 2.00%): 1.0094 ± 0.0006 g/cm³
Density (at 22 C.) ([6]; purified water, 0.05%): 0.995 ± 0.001 g/cm³
Viscosity (25 C.) [7]: 0.97 cP
Turbidity (Abs, λ = 410 nm) ([8]; 1.00%): 0.065 Abs
Turbidity (Abs, λ = 410 nm) ([8]; 2.00%): 0.108 Abs
Visual Inspection ([9]; 0.05%): clear
Visual Inspection ([9]; 0.10%): clear
Visual Inspection ([9]; 1.00%): hazy
Visual Inspection ([9]; 2.00%): hazy
Surface Tension ([10]; 0.05%): 72 mN · m^−1
Surface Tension ([10]; 0.10%): 72 mN · m^−1
Surface Tension ([10]; 1.00%): 73 mN · m^−1
Surface Tension ([10]; 2.00%): 73 mN · m^−1
number of animals surviving to old ages ([2]; after day 15, 0.1% w/w): significantly increased
Animals alive, % of initial ([2]; life span 10 days): 100 % of initial
Animals alive, % of initial ([2]; life span 15 days): 13 % of initial
Animals alive, % of initial ([2]; life span 18 days): 2 % of initial

2-hydroxy-3-N,N,N-trimethylamino)propyl-β-cyclodextrin chloride [Quaternary-ammonium-β-Cyclodextrin]
water-bond interactions, second-derivative NIR spectra ([1]; 1200-1500 nm): significantly modified
water-bond interactions, second-derivative NIR spectra ([1]; 1620-1710 nm): significantly modified
water-bond interactions, second-derivative NIR spectra ([1]; 2170-2370 nm): further significantly modified
modification of micro-structure of hydrogen bonded cluster systems in bulk water (spectral changes) ([1]; comparison among cyclodextrin-treated water samples): largest
Animals alive, % of initial ([2]; life span 10 days): 98 % of initial
Animals alive, % of initial ([2]; life span 15 days): 13 % of initial
Animals alive, % of initial ([2]; life span 18 days): 2 % of initial
water-bond interactions, second-derivative NIR spectra [3]: significantly modified

OC[C@H]1O[C@@H]2O[C@H]3[C@H](O)[C@@H](O)[C@@H](O[C@H]4[C@H](O)[C@@H](O)[C@@H](O[C@H]5[C@H](O)[C@@H](O)[C@@H](O[C@H]6[C@H](O)[C@@H](O)[C@@H](O[C@H]7[C@H](O)[C@@H](O)[C@@H](O[C@H]8[C@H](O)[C@@H](O)[C@@H](O[C@H]1[C@H](O)[C@H]2O)O[C@@H]8CO)O[C@@H]7CO)O[C@@H]6CO)O[C@@H]5CO)O[C@@H]4CO)O[C@@H]3CO [β-Cyclodextrin, β-cyclodextrin]
Animals alive, % of initial ([2]; life span 10 days): 100 % of initial
Animals alive, % of initial ([2]; life span 15 days): 18 % of initial
Animals alive, % of initial ([2]; life span 18 days): 0 % of initial

N=C(N)NCCC[C@H](N)C(=O)O [L-arginine, reference compound]
effect on C. elegans survival [2]: little effect

NC(=O)c1cccnc1 [nicotinamide, reference compound]
wheat seed germination, percentage of the seeds having a sprout ([11]; day 0): 0%
wheat seed germination, percentage of the seeds having a sprout ([11]; day 1): 0%
wheat seed germination, percentage of the seeds having a sprout ([11]; day 2): 4%
wheat seed germination, percentage of the seeds having a sprout ([11]; day 3): 10%
wheat seed germination, percentage of the seeds having a sprout ([11]; day 4): 60%
effect on C. elegans survival [2]: little effect
